Assay results published in PubChem BioAssay AID1963830 (Molecular Pharmacology Branch, DTP, NCI, 2024).
pIC50: −log10 of the molar value.

Test system: 922993-354-T-J3-PDC complex spheroid viability
Experiment: Anticancer human tumor 922993-354-T-J3-PDC patient-derived endometrial carcinoma cell line growth inhibition [POLQ]
Settings: for pIC50: curve of first compound; for viability, T/C: stronger effect = lower value
Outline: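 Growth inhibition in 3D: complex spheroids (tumor PDC, HUVEC, MSC) treated with POLQ inhibitor combinations; where Cmax unknown, highest tested concentration 10 microM, except SN-38 at 1 microM.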

[1] = second compound 0.0316 µM, first compound 0.0316 µM
[2] = second compound 0.0316 µM, first compound 0.1 µM
[3] = second compound 0.0316 µM, first compound 0.316 µM
[4] = second compound 0.0316 µM, first compound 1 µM
[5] = second compound 0.1 µM, first compound 0.0316 µM
[6] = second compound 0.1 µM, first compound 0.1 µM
[7] = second compound 0.1 µM, first compound 0.316 µM
[8] = second compound 0.1 µM, first compound 1 µM
[9] = second compound 0.316 µM, first compound 0.0316 µM
[10] = second compound 0.316 µM, first compound 0.1 µM
[11] = second compound 0.316 µM, first compound 0.316 µM
[12] = second compound 0.316 µM, first compound 1 µM
[13] = second compound 1 µM, first compound 0.0316 µM
[14] = second compound 1 µM, first compound 0.1 µM
[15] = second compound 1 µM, first compound 0.316 µM
[16] = second compound 1 µM, first compound 1 µM
[17] = second compound 3.16 µM, first compound 0.0316 µM
[18] = second compound 3.16 µM, first compound 0.1 µM
[19] = second compound 3.16 µM, first compound 0.316 µM
[20] = second compound 3.16 µM, first compound 1 µM
[21] = second compound 10 µM, first compound 0.0316 µM
[22] = second compound 10 µM, first compound 0.1 µM
[23] = second compound 10 µM, first compound 0.316 µM
[24] = second compound 10 µM, first compound 1 µM
[25] = second compound 0.0316 µM, first compound 0.00316 µM
[26] = second compound 0.0316 µM, first compound 0.01 µM
[27] = second compound 0.1 µM, first compound 0.00316 µM
[28] = second compound 0.1 µM, first compound 0.01 µM
[29] = second compound 0.316 µM, first compound 0.00316 µM
[30] = second compound 0.316 µM, first compound 0.01 µM
[31] = second compound 1 µM, first compound 0.00316 µM
[32] = second compound 1 µM, first compound 0.01 µM
[33] = second compound 3.16 µM, first compound 0.00316 µM
[34] = second compound 3.16 µM, first compound 0.01 µM
[35] = second compound 10 µM, first compound 0.00316 µM
[36] = second compound 10 µM, first compound 0.01 µM
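Further: spheroids exposed to the agents for one week.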
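Wherever viability, T/C is given: 100% = DMSO vehicle control wells.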

`CNCc1ccc(-c2[nH]c3cc(F)cc4c3c2CCNC4=O)cc1` + Nc1ccc(C#CCN(C(=O)Cc2ncc(C(F)(F)F)cc2C(F)(F)F)c2ccc(F)cc2)nn1 was tested, and the pIC50 (second compound 0.0316 µM) was under 5.00, the pIC50 (second compound 0.1 µM) was under 5.00 and the pIC50 (second compound 0.316 µM) was under 5.00. The pIC50 (second compound 1 µM) was under 5.00, the pIC50 (second compound 3.16 µM) was under 5.00 and the pIC50 (second compound 10 µM) was under 5.00. The viability, T/C [1] was 101%, the viability, T/C [2] was 98.2% and the viability, T/C [3] was 98.2%. For the same molecule, the viability, T/C [4] was 97%, the viability, T/C (second compound 0.0316 µM, first compound 3.16 µM) was 96.1% and the viability, T/C (second compound 0.0316 µM, first compound 10 µM) was 90.5%. For the same molecule, the viability, T/C [5] was 103%, the viability, T/C [6] was 99% and the viability, T/C [7] was 99.9%. For the same molecule, the viability, T/C [8] was 101%, the viability, T/C (second compound 0.1 µM, first compound 3.16 µM) was 97.3% and the viability, T/C (second compound 0.1 µM, first compound 10 µM) was 92.5%. For the same molecule, the viability, T/C [9] was 97.3%, the viability, T/C [10] was 99.2% and the viability, T/C [11] was 97%. It also gave a viability, T/C [12] of 96%, a viability, T/C (second compound 0.316 µM, first compound 3.16 µM) of 102% and a viability, T/C (second compound 0.316 µM, first compound 10 µM) of 91.8%. For the same molecule, the viability, T/C [13] was 104%, the viability, T/C [14] was 96.4% and the viability, T/C [15] was 94.7%. The viability, T/C [16] was 102%, the viability, T/C (second compound 1 µM, first compound 3.16 µM) was 97.3% and the viability, T/C (second compound 1 µM, first compound 10 µM) was 94.9%. For the same molecule, the viability, T/C [17] was 97.3%, the viability, T/C [18] was 100% and the viability, T/C [19] was 101%. It also gave a viability, T/C [20] of 93.9%, a viability, T/C (second compound 3.16 µM, first compound 3.16 µM) of 95.9% and a viability, T/C (second compound 3.16 µM, first compound 10 µM) of 89.6%. It also gave a viability, T/C [21] of 95.5%, a viability, T/C [22] of 96.9% and a viability, T/C [23] of 91.9%. The viability, T/C [24] was 93%, the viability, T/C (second compound 10 µM, first compound 3.16 µM) was 89.6% and the viability, T/C (second compound 10 µM, first compound 10 µM) was 69.9%.
Molecule `COc1cccc(OCCCN)c1-c1cc(Nc2cnc(C#N)cn2)n[nH]1` + Nc1ccc(C#CCN(C(=O)Cc2ncc(C(F)(F)F)cc2C(F)(F)F)c2ccc(F)cc2)nn1 has a pIC50 (second compound 0.0316 µM) of 6.23, a pIC50 (second compound 0.1 µM) of 6.17 and a pIC50 (second compound 0.316 µM) of 6.21. For the same molecule, the pIC50 (second compound 1 µM) was 6.22, the pIC50 (second compound 3.16 µM) was 6.56 and the pIC50 (second compound 10 µM) was 7.28. For the same molecule, the viability, T/C [25] was 102%, the viability, T/C [26] was 100% and the viability, T/C [1] was 98.2%. The viability, T/C [2] was 97.3%, the viability, T/C [3] was 83.4% and the viability, T/C [4] was 22.1%. It also gave a viability, T/C [27] of 104%, a viability, T/C [28] of 99% and a viability, T/C [5] of 95.9%. For the same molecule, the viability, T/C [6] was 98.5%, the viability, T/C [7] was 99.1% and the viability, T/C [8] was 23.8%. The viability, T/C [29] was 102%, the viability, T/C [30] was 98.2% and the viability, T/C [9] was 94.7%. It also gave a viability, T/C [10] of 99.7%, a viability, T/C [11] of 92.3% and a viability, T/C [12] of 19.4%. For the same molecule, the viability, T/C [31] was 102%, the viability, T/C [32] was 105% and the viability, T/C [13] was 101%. For the same molecule, the viability, T/C [14] was 96.3%, the viability, T/C [15] was 94% and the viability, T/C [16] was 16.9%. The viability, T/C [33] was 96.1%, the viability, T/C [34] was 98.1% and the viability, T/C [17] was 99.2%. The viability, T/C [18] was 94.2%, the viability, T/C [19] was 44.3% and the viability, T/C [20] was 14.8%. For the same molecule, the viability, T/C [35] was 95.9%, the viability, T/C [36] was 92.8% and the viability, T/C [21] was 74.7%. The viability, T/C [22] was 18.3%, the viability, T/C [23] was 10.5% and the viability, T/C [24] was 10.6%.
With `Cn1ncnc1[C@H]1c2n[nH]c(=O)c3cc(F)cc(c23)N[C@@H]1c1ccc(F)cc1` + Nc1ccc(C#CCN(C(=O)Cc2ncc(C(F)(F)F)cc2C(F)(F)F)c2ccc(F)cc2)nn1 the pIC50 (second compound 0.0316 µM) was under 7.00, the pIC50 (second compound 0.1 µM) was under 7.00 and the pIC50 (second compound 0.316 µM) was under 7.00. The pIC50 (second compound 1 µM) was under 7.00, the pIC50 (second compound 3.16 µM) was under 7.00 and the pIC50 (second compound 10 µM) was under 7.00. For the same molecule, the viability, T/C (second compound 0.0316 µM, first compound 0.000316 µM) was 97.9%, the viability, T/C (second compound 0.0316 µM, first compound 0.001 µM) was 102% and the viability, T/C [25] was 101%. For the same molecule, the viability, T/C [26] was 98.3%, the viability, T/C [1] was 101% and the viability, T/C [2] was 89.2%. The viability, T/C (second compound 0.1 µM, first compound 0.000316 µM) was 107%, the viability, T/C (second compound 0.1 µM, first compound 0.001 µM) was 102% and the viability, T/C [27] was 102%. For the same molecule, the viability, T/C [28] was 98.1%, the viability, T/C [5] was 102% and the viability, T/C [6] was 86.5%. For the same molecule, the viability, T/C (second compound 0.316 µM, first compound 0.000316 µM) was 104%, the viability, T/C (second compound 0.316 µM, first compound 0.001 µM) was 106% and the viability, T/C [29] was 100%. The viability, T/C [30] was 96.6%, the viability, T/C [9] was 96% and the viability, T/C [10] was 89.6%. For the same molecule, the viability, T/C (second compound 1 µM, first compound 0.000316 µM) was 105%, the viability, T/C (second compound 1 µM, first compound 0.001 µM) was 101% and the viability, T/C [31] was 98.7%. For the same molecule, the viability, T/C [32] was 98.1%, the viability, T/C [13] was 96.8% and the viability, T/C [14] was 86.2%. For the same molecule, the viability, T/C (second compound 3.16 µM, first compound 0.000316 µM) was 102%, the viability, T/C (second compound 3.16 µM, first compound 0.001 µM) was 99% and the viability, T/C [33] was 93%. The viability, T/C [34] was 95.4%, the viability, T/C [17] was 89.2% and the viability, T/C [18] was 82.6%. The viability, T/C (second compound 10 µM, first compound 0.000316 µM) was 101%, the viability, T/C (second compound 10 µM, first compound 0.001 µM) was 94.9% and the viability, T/C [35] was 94.8%. The viability, T/C [36] was 85.7%, the viability, T/C [21] was 71.9% and the viability, T/C [22] was 53.4%.
